Holding throughout (format): functional
Holding throughout (settings): for LC50: Diaphorina citri, 48 h

The subject of assay [1] is Diaphorina citri. As to the kind of experiment: Insecticidal activity against orange/yellow Diaphorina citri in citrus leaf assessed as mortality after 48 hr by leaf-dip petridish bioassay method.
For assay [2], the system named is Diaphorina citri. The assay can be described thus: Insecticidal activity against gray/brown Diaphorina citri in citrus leaf assessed as mortality after 48 hr by leaf-dip petridish bioassay method.
Assay [3] concerns Diaphorina citri. The assay can be described thus: Insecticidal activity against blue/green Diaphorina citri in citrus leaf assessed as mortality after 48 hr by leaf-dip petridish bioassay method.

In brackets after ≈: the same amount, converted by molar mass.

In the case of `CCOP(=S)(OCC)Oc1nc(Cl)c(Cl)cc1Cl` [CHLORPYRIFOS], the LC95 in assay [1] stood at 2.67 µg/mL (≈ 7.62 µM); in assay [2], 11.62 µg/mL (≈ 33.1 µM); in assay [3], 12.12 µg/mL (≈ 34.6 µM). Besides, the LC50 (commonly the concentration that kills 50% of the test population) came to 0.92 µg/mL (≈ 2.62 µM) in assay [1], 3.62 µg/mL (≈ 10.3 µM) in assay [2] and 3.93 µg/mL (≈ 11.2 µM) in assay [3].
Take `CC1(C)C(C(=O)OC(C#N)c2cccc(Oc3ccccc3)c2)C1(C)C` (centres undefined) [FENPROPATHRIN]: in assay [3], the LC95 is 29.21 µg/mL (≈ 83.6 µM) and the LC50 was determined as 0.85 µg/mL (≈ 2.43 µM).
Consider `O=[N+]([O-])/N=C1\NCCN1Cc1ccc(Cl)nc1` [IMIDACLOPRID], for which the LC95 in assay [1] turned out to be 1.09 µg/mL (≈ 4.26 µM); in assay [2], 1.59 µg/mL (≈ 6.22 µM); in assay [3], 1.84 µg/mL (≈ 7.2 µM). In addition, the results for the LC50 in assay [1], in assay [2] and in assay [3] were 0.18 µg/mL (≈ 0.704 µM), 0.41 µg/mL (≈ 1.6 µM) and 0.4 µg/mL (≈ 1.56 µM), respectively.
